One compound from PMC5784824 (Journal of immunology (Baltimore, Md. : 1950), 2017) can be followed below.

For one experiment, the target named is T1, hP2X4 (Homo sapiens, UniProt Q99571).
T1 sequence (Q99571 1-388): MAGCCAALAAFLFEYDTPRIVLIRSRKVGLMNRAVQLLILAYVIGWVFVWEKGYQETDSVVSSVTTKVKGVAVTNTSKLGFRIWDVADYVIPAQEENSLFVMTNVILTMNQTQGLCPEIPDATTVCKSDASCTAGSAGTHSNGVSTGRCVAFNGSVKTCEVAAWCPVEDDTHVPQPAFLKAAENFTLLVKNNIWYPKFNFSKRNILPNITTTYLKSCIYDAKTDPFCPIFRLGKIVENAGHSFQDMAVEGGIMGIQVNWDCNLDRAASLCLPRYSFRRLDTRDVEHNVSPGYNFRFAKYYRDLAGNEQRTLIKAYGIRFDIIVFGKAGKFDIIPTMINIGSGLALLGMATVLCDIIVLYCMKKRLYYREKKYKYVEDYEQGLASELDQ
Description: Fura-2 intracellular Ca2+ measurement in over-expressing […]1 cells. As to conditions: agonist; pH 7.4; 1.5 mM CaCl2 buffer. Type of experiment: cell-based.

The target in the next experiment is T2, hP2X7 (Homo sapiens, UniProt Q99572).
T2 sequence (Q99572 1-595): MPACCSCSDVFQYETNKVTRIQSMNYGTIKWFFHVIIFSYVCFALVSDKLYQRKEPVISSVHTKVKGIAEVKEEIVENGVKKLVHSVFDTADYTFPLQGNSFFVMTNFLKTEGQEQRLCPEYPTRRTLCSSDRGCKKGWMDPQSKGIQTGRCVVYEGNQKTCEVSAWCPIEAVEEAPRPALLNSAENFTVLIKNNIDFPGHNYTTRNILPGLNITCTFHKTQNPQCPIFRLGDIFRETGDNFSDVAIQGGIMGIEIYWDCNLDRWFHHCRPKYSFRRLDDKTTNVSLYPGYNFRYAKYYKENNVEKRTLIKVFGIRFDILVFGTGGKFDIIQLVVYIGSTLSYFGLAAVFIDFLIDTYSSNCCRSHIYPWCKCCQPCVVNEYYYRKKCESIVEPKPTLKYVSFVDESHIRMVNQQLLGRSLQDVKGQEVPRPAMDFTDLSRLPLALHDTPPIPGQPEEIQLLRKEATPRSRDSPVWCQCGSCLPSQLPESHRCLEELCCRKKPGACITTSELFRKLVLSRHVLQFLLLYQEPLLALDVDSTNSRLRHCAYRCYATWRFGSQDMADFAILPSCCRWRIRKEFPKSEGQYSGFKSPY
Described as above. Type of experiment: cell-based. As to conditions: agonist; pH 7.4; 1.5 mM CaCl2 buffer.

Turning to `Nc1ncnc2c1ncn2[C@@H]1O[C@H](COP(=O)(O)OP(=O)(O)OP(=O)(O)O)[C@@H](O)[C@H]1O` [ATP], the “Ca2+ response (activation) at 100 μM ATP” value at hP2X4 was “in over-expressing cells illustrated maximal activation of P2X4 and no activation of P2X7”. Also, the “Ca2+ response (no activation) at 100 μM ATP” value on hP2X7 was “in over-expressing cells illustrated maximal activation of P2X4 and no activation of P2X7”.
